Reference: patent publication EP0286781A2, “Pharmaceutical preparation for treating gastro-intestinal tract diseases” (HEUMANN PHARMA GMBH & CO, priority 1987, dated 1988)

Key:
[1] = system: immobilisationsstreßinduzierten gastromukosalen Schädigung der Ratte; test: Immobilisation-stress-induced gastromucosal damage in the rat (ulcer index); assay type: in vivo, Sprague-Dawley-Ratten; settings: Dosis 50 mg/kg, intragastral in 1%iger Tylose
Excerpt: Untersuchungen am Modell der immobilisationsstreßinduzierten gastromukosalen Schädigung der Ratte
(1984), "Scand. J. Gastroenterol.", 19, (Suppl. 101), 69).
Gestreßt wurden die Tiere unmittelbar nach Applikation. Nach Versuchsende wurden den Tieren die Mägen in Ethernarkose entnommen. Die Mägen wurden entlang der großen Kurvatur eröffnet und gespült. Ausmaß und Beschaffenheit der Läsionen wurden nach einer von Marazzi-Uberti und Turba (C. Med. exp., 4, 284 (1961)) angegebenen Einteilung visuell ausgezählt und als Ulcus-Index ausgedrückt.

[2] = hochdosiert, ca. 50 mg/kg; A. Robert u.a. (1984); cited from earlier work

CN=C(NC#N)NCCSCc1[nH]cnc1C [Cimetidin]
Ulcus-Index (MW ±) SD ([1]; rats fasted 16 h, 10 animals, control 1% Tylose 69,8 ± 10,7, significant vs control): 32,1 ± 6,6*) | % Hemmung ([1]; inhibition of Ulcus-Index vs 1% Tylose control): 54% | ulcus- bzw. cytoprotektive Wirkung [2]: ulcus- bzw. cytoprotektive Wirkung
